Data as given in publication PMC4546618, “Casitas B-Lineage Lymphoma RING Domain Inhibitors Protect Mice against High-Fat Diet-Induced Obesity and Insulin Resistance” (PLoS ONE, 2015).
Read-outs that look alike come from different tables or passages of the source. Blank lines part the entries; values can stand above or below the compound they belong to. Where a SMILES comes first, the peptide text is derived from it. [ ]: non-standard residue; d: D form. Pro(trans-4-F) = O=C(O)[C@@H]1C[C@@H](F)CN1; Phg = N[C@H](C(=O)O)c1ccccc1; ΔPro = O=C(O)[C@@H]1C=CCN1; Pip = O=C(O)[C@@H]1CCCCN1; Thz = O=C(O)[C@@H]1CSCN1; Aze = O=C(O)[C@@H]1CCN1

Experiments:
[1] = target: T1, Cbl (RING) protein (Homo sapiens, UniProt P22681); assay: Fluorescence polarization (FP) assay, competition with FITC-βA-PFKPP-NH2 probe; format: binding; details: probe FITC-βA-PFKPP-NH2 100 nmol/L, Cbl (RING) protein 3 μmol/L, PBS pH 7.4
T1 construct: including the linker and RING domain (codon 358–457); GST (Glutathione S-Transferase); made in house
T1 sequence (P22681 358-457): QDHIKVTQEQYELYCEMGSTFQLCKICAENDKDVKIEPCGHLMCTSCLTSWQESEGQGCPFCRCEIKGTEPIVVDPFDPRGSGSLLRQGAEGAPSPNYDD
Description: Peptides and peptide mimetics were purchased from MitenChem (China) with a purity ≥ 98%. Concentrations values of reconstituted peptides were determined by amino acid analysis at the protein core facility (Chengdu Medical College). The recombinant Cbl protein was produced by the Chengdu Medical College Protein Core Facility and was described previously. The c-Cbl (RING) protein, including the linker and RING domain (codon 358–457), was tagged with Glutathione S-Transferase (GST) and purified with GSH-Sepharose (Shanghai Biopharma).
The FP assay was developed and validated previously. Briefly, fluorescein-labeled probe (FITC-βA-PFKPP-NH2, 100 nmol/L) and Cbl (RING) protein (3 μmol/L) were mixed and diluted to the final concentration using 0.01% Triton X-100 in PBS (pH = 7.4). Then, 19 μl of this master mix was loaded to each reaction well. The peptides or peptide mimetics were then loaded to the designated wells (1 μl, 10 μmol/L– 0.078 μmol/L, half-fold dilutions). The total fluorescence and polarization values were measured at an excitation wavelength of 485 nm and an emission wavelength of 538 nm using a ZS-2 plate reader. The data was fitted, and the ΔmP, Kd, and Ki values were estimated, using SigmaPlot 11.0.

[2] = test system: mice; assay: Acute toxicity in mice; format: in vivo; details: up to 15 mg/kg i.p.; for signs of acute toxicity: 72 hours; for death of animals: another 14 days following the initial examination; for H&E staining of livers, spleens and kidneys: end of experiment
Description: (§1) All experiments were approved by the institutional Animal Care and Use Committee (Chengdu Medical College, China). All experiments were carried out in 10-week-old male mice maintained on the C57BL/6 background. All the animals were kept on a 12-h light/dark cycle with free access to food and water.
The control group (n = 10) received vehicle only. Eight groups (10 mice each) were treated with increasing doses of either peptide 1, 3, 10, 34, 2, 60, 49, and 51 up to 15 mg/kg by i.p. Number of death, sedation, spontaneous motor activity, alertness, ptosis, dyspnea, convulsion, diarrhea, urination, postural reflex, piloerection, nociception, grooming, vocalization, rearing, climbing and aggression were observed every 12 hours for 72 h. Animals were maintained for another 14 days after the initial examination. We planned to sacrifice the animals if they show severe signs of pain or distress, a body weight loss in excess of 15% of its body weight, or a deterioration of the body condition score to BC2(-) or below. However, none of the animals qualified for the mentioned the symptoms. No animals died during the whole study. At the end of the experiment, animals were euthanized by CO2 asphyxiation followed by cervical dislocation, the livers, spleens and kidneys were collected and formalin-fixed paraffin-embedded for H&E staining.

[3] = Pharmacokinetic studies, plasma concentration after i.p. injection; format: in vivo; details: mice, i.p. 4 mg/kg; for Cmax: male, C57BL/6, mouse, plasma, ip, read-out: maximum concentration in plasma; for plasma concentrations compared to the parental peptides 1 and 2: at each time point after 1 hour
Description: as §1
Peptides (1, 3, 10, 34, 2, 60, 49, and 51) were dissolved in sterile aqueous 5% dextrose and administered to mice by i.p. injection (4 mg/kg). Blood samples were collected from the tail tip at 0, 0.5, 1, 6, 12, 18, 24 and 48 hours. Plasma samples were harvested by centrifugation and stored at -80°C until assayed. Peptide concentrations in plasma were determined by Reversed-Phase High-Performance Liquid Chromatography (RP-HPLC) with electrospray ionization mass spectrometric ([…]) detection. Samples were assayed with a series of 8 calibration standards of peptide in plasma at concentrations ranging from 50 to 6000 μg/L. Peptide concentrations were determined by comparing to the standards.

[4] = test system: mice fed a high-fat diet; assay: High-fat diet-induced obesity: body weight, food intake, body composition, adipocyte volume; format: in vivo; details: daily i.p. 5 mg/kg, 12 weeks; for percentage of perigonadal fat mass: NMR, vehicle 8 ± 0.8%; for adipocyte volume: adipocytes from epididymal fat pad, vehicle 510 ± 42 pL
Description: as §1
(§2) Animals (n = 90) were randomly assigned to one of the nine groups (Table 1). Animals were fed ad libitum with a high-fat diet (60% of caloric intake from fat (70% saturated fat), 20% from carbohydrates, and 20% from protein) before experiments and for another 12 weeks during the experiments. Food intake was measured manually on a daily basis. Eight groups of animals were treated with indicated peptides with a daily i.p. injection at 5 mg/kg and one group of animals were treated with vehicle.
Body composition was measured using nuclear magnetic resonance (NMR) technology at Chengdu College core facility. Epididymal fat pads were excised and adipocytes were isolated. Cells were then fixed using 2% OsO4 in PBS overnight at 37°C [2].

[5] = test system: mice fed a high-fat diet; assay: Glucose tolerance test after 12 weeks of treatment on high-fat diet; format: in vivo; details: overnight fasted mice, 2 g/kg glucose i.p., after 12 weeks daily i.p. 5 mg/kg on high-fat diet
Description: as §1, §2
After receiving 12 weeks of treatment as described above, glucose tolerance tests were performed in overnight fasted mice. Each mouse received a 2 g/kg glucose through i.p. Blood samples were obtained from the tail tip at 0, 30, 60, 90, and 120 min. Insulin concentrations were measured using mouse insulin Elisa kits (ChrystalChem) using mouse standards. Glucose levels were measured using a glucometer (Roche).

[6] = test system: mice fed a high-fat diet; assay: Indirect energy expenditure and physical activity measurement; format: in vivo; details: after 12 weeks daily i.p. 5 mg/kg on high-fat diet; for Oxygen consumption VO2: vehicle 4.15 ± 0.55; for Ambulatory day activity / Ambulatory night activity: photobeam break counts; for Ambulatory day activity: vehicle 2,069 ± 705; for Ambulatory night activity: vehicle 6,289 ± 1,216
Description: as §1, §2
After receiving 12 weeks of treatment as described above, rates of oxygen consumption (VO2) was measured using a four-chamber indirect calorimeter (Langguan, China, air flow of 0.5 l/min). A total of 2-hour measurement for each animal was conducted at 15-minuate intervals under room temperature (22°C). Ambulatory activity was estimated by counting the number of photobeam breaks in a three-sensor chamber instrument (Rui Pharm, China), and the cumulative ambulatory activity counts were recorded every hour. A total of 12 h-day time and 12 h-night activity were recorded for each animal.

Compound: CC(=O)N1CCC[C@H]1C(=O)N[C@H](C(=O)N[C@@H](CCCCN)C(=O)N1CCC[C@H]1C(=O)N1CCC[C@H]1C(N)=O)c1ccccc1 [Peptide 3, Ac-P(a)KPP-NH2] (Ac-P[Phg]KPP-NH2)
Ki [1]: > 500 µM
signs of acute toxicity [2]: did not show vital signs of acute toxicity
death of animals [2]: None of the animals died
H&E staining of livers, spleens and kidneys [2]: does not show any sign of injuries
Cmax ([3]; observed in 60 min): 4.01 µg/mL
plasma concentrations compared to the parental peptides 1 and 2 [3]: greater plasma concentrations
percentage of perigonadal fat mass [4]: 7.1 ± 0.4%
adipocyte volume [4]: 505 ± 34 pL
glucose tolerance compared to the vehicle group [5]: not statistically significant
Oxygen consumption VO2 [6]: 3.78 ± 0.29 mL/g/h
Ambulatory day activity [6]: 2,158 ± 763 per 12 h
Ambulatory night activity [6]: 6,058 ± 1,298 per 12 h

Compound: CC(=O)CN(CCCC[C@H](NC(C)=O)C(=O)N1CCC[C@H]1C(=O)N[C@@H](C)C(=O)N[C@H](C(=O)N[C@@H](CCCCN(O)C(C)=O)C(N)=O)[C@@H](C)O)C(C)=O [Peptide 45, Ac-(w)PAT(v)-NH2]
Ki [1]: 196 ± 12.3 µM

Compound: CC(=O)N[C@@H](CCCCN)C(=O)N1CC=C[C@H]1C(=O)N[C@@H](C)C(=O)N[C@H](C(=O)N[C@@H](CCCCN)C(N)=O)[C@@H](C)O [Peptide 47, Ac-K(p)ATK-NH2] (Ac-K[ΔPro]ATK-NH2)
Ki [1]: 44.3 ± 13.2 µM

Compound: CC(=O)N[C@@H](CCCCN)C(=O)N1CCCC[C@H]1C(=O)N[C@@H](C)C(=O)N[C@H](C(=O)N[C@@H](CCCCN)C(N)=O)[C@@H](C)O [Peptide 50, Ac-K(s)ATK-NH2] (Ac-K[Pip]ATK-NH2)
Ki [1]: 32.6 ± 10.9 µM

Compound: CC(=O)N[C@@H](CCCCN)C(=O)N1C[C@H](F)C[C@H]1C(=O)N[C@@H](C)C(=O)N[C@@H](C)C(=O)N[C@@H](CCCCN)C(N)=O [Peptide 57, Ac-K(t)AAK-NH2] (Ac-K[Pro(trans-4-F)]AAK-NH2)
Ki [1]: 179 ± 10.2 µM

Compound: CC(=O)N[C@@H](CCCCN)C(=O)N1C[C@H](F)C[C@H]1C(=O)N[C@@H](C)C(=O)N[C@H](C(=O)N[C@@H](CCCCN)C(N)=O)C(C)C [Peptide 58, Ac-K(t)AVK-NH2] (Ac-K[Pro(trans-4-F)]AVK-NH2)
Ki [1]: 126 ± 3.2 µM

Compound: CC[C@H](C)[C@H](NC(=O)[C@H](C)NC(=O)[C@@H]1C[C@@H](F)CN1C(=O)[C@H](CCCCN)NC(C)=O)C(=O)N[C@@H](CCCCN)C(N)=O [Peptide 59, Ac-K(t)AIK-NH2] (Ac-K[Pro(trans-4-F)]AIK-NH2)
Ki [1]: 145 ± 18.3 µM

Compound: CC(=O)N[C@@H](CCCCN)C(=O)N1C[C@H](F)C[C@H]1C(=O)N[C@@H](C)C(=O)N[C@@H](CC(C)C)C(=O)N[C@@H](CCCCN)C(N)=O [Peptide 60, Ac-K(t)ALK-NH2] (Ac-K[Pro(trans-4-F)]ALK-NH2)
Ki [1]: 228 ± 20.2 µM
signs of acute toxicity [2]: did not show vital signs of acute toxicity
death of animals [2]: None of the animals died
H&E staining of livers, spleens and kidneys [2]: does not show any sign of injuries
Cmax ([3]; observed in 60 min): 4.29 µg/mL
plasma concentrations compared to the parental peptides 1 and 2 [3]: greater plasma concentrations
percentage of perigonadal fat mass [4]: 7.8 ± 0.7%
adipocyte volume [4]: 520 ± 26 pL
Oxygen consumption VO2 [6]: 4.16 ± 0.29 mL/g/h
Ambulatory day activity [6]: 2,025 ± 945 per 12 h
Ambulatory night activity [6]: 5,993 ± 1,278 per 12 h

Compound: Ac-KPATK-NH2 [Peptide 2, Ac-KPATK-NH2]
Ki [1]: 4.7 ± 1.2 µM
signs of acute toxicity [2]: did not show vital signs of acute toxicity
death of animals [2]: None of the animals died
H&E staining of livers, spleens and kidneys [2]: does not show any sign of injuries
Cmax ([3]; observed in 30 min): 3.37 µg/mL
percentage of perigonadal fat mass [4]: 6.7 ± 0.5%
adipocyte volume [4]: 440 ± 58 pL
Oxygen consumption VO2 [6]: 4.22 ± 0.42 mL/g/h
Ambulatory day activity [6]: 2,342 ±1,002 per 12 h
Ambulatory night activity [6]: 6,721 ± 1,032 per 12 h

Other lines, results leading:

Ki [1]: 59.6 ± 13.5 µM
Compound: CC(=O)N[C@@H](CCCCN)C(=O)N1CC[C@H]1C(=O)N[C@@H](C)C(=O)N[C@H](C(=O)N[C@@H](CCCCN)C(N)=O)[C@@H](C)O [Peptide 48, Ac-K(q)ATK-NH2] (Ac-K[Aze]ATK-NH2)

Ki [1]: 91.2 ± 6.6 µM
Compound: CC(=O)N[C@@H](CCCCN)C(=O)N1CSC[C@H]1C(=O)N[C@H](C(=O)N[C@H](C(=O)N[C@@H](CCCCN)C(N)=O)[C@@H](C)O)C(C)C [Peptide 53, Ac-K(r)VTK-NH2] (Ac-K[Thz]VTK-NH2)

Ki [1]: 201 ± 14.4 µM
Compound: CC(=O)N[C@@H](CCCCN)C(=O)N1CSC[C@H]1C(=O)N[C@H](C(=O)N[C@H](C(=O)N[C@@H](CCCCN)C(N)=O)[C@@H](C)O)[C@@H](C)O [Peptide 54, Ac-K(r)TTK-NH2] (Ac-K[Thz]TTK-NH2)

Ki [1]: 190 ± 19.2 µM
Compound: CC[C@H](C)[C@H](NC(=O)[C@@H]1CSCN1C(=O)[C@H](CCCCN)NC(C)=O)C(=O)N[C@H](C(=O)N[C@@H](CCCCN)C(N)=O)[C@@H](C)O [Peptide 55, Ac-K(r)ITK-NH2] (Ac-K[Thz]ITK-NH2)

Ki [1]: 226 ± 22.5 µM
Compound: CC(=O)N[C@@H](CCCCN)C(=O)N1CSC[C@H]1C(=O)N[C@@H](CC(C)C)C(=O)N[C@H](C(=O)N[C@@H](CCCCN)C(N)=O)[C@@H](C)O [Peptide 56, Ac-K(r)LTK-NH2] (Ac-K[Thz]LTK-NH2)
